target: T1, human MC5R (Homo sapiens, UniProt P33032); assay: Human MC5R radioligand binding assay ([125I] NDP-MSH displacement, hMC5R membranes); conditions: hMC5R assay as in Example 102; compounds tested as trifluoroacetate or hydrochloride salts, or as free base
T1 construct: purchased Perkin Elmer RBXMC5M400UA
Summary of the method: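 Bound ligand collected by filtration on PEI-soaked GF/A filters and counted. Data fitted to a single-site competition model with fixed Hill coefficient to give EC50.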

T1 sequence (P33032 whole entry): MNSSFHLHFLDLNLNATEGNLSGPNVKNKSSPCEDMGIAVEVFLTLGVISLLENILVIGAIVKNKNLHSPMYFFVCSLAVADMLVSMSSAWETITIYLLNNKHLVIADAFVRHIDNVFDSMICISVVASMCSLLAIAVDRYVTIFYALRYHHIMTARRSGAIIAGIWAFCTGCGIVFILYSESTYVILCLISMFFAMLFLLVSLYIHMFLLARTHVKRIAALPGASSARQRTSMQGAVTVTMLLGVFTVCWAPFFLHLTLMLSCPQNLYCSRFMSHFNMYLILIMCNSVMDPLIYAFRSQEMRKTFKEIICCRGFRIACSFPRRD

Question: Which IC50 does the source give for `NCC[C@@H]1N[C@H](CNC(=O)c2ccc(Cl)c(Cl)c2)CCN(CC(c2ccccc2)c2ccccc2)C1=O` [Compound 280, N-(((3S,5S)-3-(2-aminoethyl)-1-(2,2-diphenylethyl)-2-oxo-1,4-diazepan-5-yl)methyl)-3,4-dichlorobenzamide] here?
Answer: < 1000 nM

Question: With `Cc1ccc(C(=O)NC[C@@H]2CCN(CC(c3ccccc3)c3ccccc3)C(=O)[C@H](CCN)N2)cc1C` [Compound 281, N-(((3S,5S)-3-(2-aminoethyl)-1-(2,2-diphenylethyl)-2-oxo-1,4-diazepan-5-yl)methyl)-3,4-dimethylbenzamide] as the compound, how does the IC50 read?
Answer: < 1000 nM

Question: With `NCC[C@@H]1N[C@H](CNC(=O)/C=C/c2ccc(Cl)cc2)CCN(CC(c2ccccc2)c2ccccc2)C1=O` [Compound 283, (E)-N-(((3S,5S)-3-(2-aminoethyl)-1-(2,2-diphenylethyl)-2-oxo-1,4-diazepan-5-yl)methyl)-3-(4-chlorophenyl)acrylamide] as the compound, how does the IC50 read?
Answer: < 100 nM

Question: With `O=C(NC[C@@H]1CCN(CC(c2ccccc2)c2ccccc2)C(=O)[C@H](CCN2CCCCC2)N1)c1ccc(Cl)c(Cl)c1` [Compound 284, 3,4-dichloro-N-(((3S,5S)-1-(2,2-diphenylethyl)-2-oxo-3-(2-(piperidin-1-yl)ethyl)-1,4-diazepan-5-yl)methyl)benzamide] as the compound, how does the IC50 read?
Answer: < 10 nM

Question: With `Cc1ccc(C(=O)NC[C@@H]2CCN(CC(c3ccccc3)c3ccccc3)C(=O)[C@H](CCN3CCCCC3)N2)cc1C` [Compound 285, N-(((3S,5S)-1-(2,2-diphenylethyl)-2-oxo-3-(2-(piperidin-1-yl)ethyl)-1,4-diazepan-5-yl)methyl)-3,4-dimethylbenzamide] as the compound, how does the IC50 read?
Answer: < 100 nM

Question: For `CCCC[C@@H]1N[C@H](CNC(=O)/C=C/c2ccc(Cl)cc2)CCN(CC(c2ccccc2)c2ccccc2)C1=O` [Compound 297, (E)-N-(((3S,5S)-3-butyl-1-(2,2-diphenylethyl)-2-oxo-1,4-diazepan-5-yl)methyl)-3-(4-chlorophenyl)acrylamide], which IC50 is on record?
Answer: < 1000 nM

Question: How did the IC50 turn out when `NC(=O)CC[C@@H]1N[C@H](CNC(=O)/C=C/c2ccc(Cl)cc2)CCN(CC(c2ccccc2)c2ccccc2)C1=O` [Compound 298, (E)-N-(((3S,5S)-3-(3-amino-3-oxopropyl)-1-(2,2-diphenylethyl)-2-oxo-1,4-diazepan-5-yl)methyl)-3-(4-chlorophenyl)acrylamide] was run?
Answer: < 1000 nM

Question: `O=C(/C=C/c1ccc(Cl)cc1)NC[C@@H]1CCN(CC(c2ccccc2)c2ccccc2)C(=O)[C@H](CCNC(=O)C2CCCCC2)N1` [Compound 306, N-(2-((2S,7S)-7-(((E)-3-(4-chlorophenyl)acrylamido)methyl)-4-(2,2-diphenylethyl)-3-oxo-1,4-diazepan-2-yl)ethyl)cyclohexanecarboxamide] was tested. Which IC50 did it give?
Answer: < 1000 nM

Question: Which IC50 does the source give for `O=C(/C=C/c1ccc(Cl)cc1)NC[C@@H]1CCN(CC(c2ccccc2)c2ccccc2)C(=O)[C@H](CCNC(=O)CC2CCCCC2)N1` [Compound 307, (E)-3-(4-chlorophenyl)-N-(((3S,5S)-3-(2-(2-cyclohexylacetamido)ethyl)-1-(2,2-diphenylethyl)-2-oxo-1,4-diazepan-5-yl)methyl)acrylamide] here?
Answer: < 1000 nM

Question: For `NCC[C@@H]1N[C@H](CCNC(=O)c2ccccc2)CCN(CC(c2ccccc2)c2ccccc2)C1=O` [Compound 308, N-(2-((3S,5R)-1-(2,2-diphenylethyl)-2-oxo-3-(2-aminoethyl)-1,4-diazepan-5-yl)ethyl)benzamide], which IC50 is on record?
Answer: < 10000 nM

Question: Which IC50 does the source give for `NCC[C@@H]1N[C@H](CCNC(=O)c2ccc(Cl)c(Cl)c2)CCN(CC(c2ccccc2)c2ccccc2)C1=O` [Compound 309, 3,4-dichloro-N-(2-((3S,5R)-1-(2,2-diphenylethyl)-2-oxo-3-(2-aminoethyl)-1,4-diazepan-5-yl)ethyl)benzamide] here?
Answer: < 1000 nM

Question: Which IC50 does the source give for `O=C(NCC[C@@H]1CCN(CC(c2ccccc2)c2ccccc2)C(=O)[C@H](CCN2CCCCC2)N1)c1ccccc1` [Compound 311, N-(2-((3S,5R)-1-(2,2-diphenylethyl)-2-oxo-3-(2-(piperidin-1-yl)ethyl)-1,4-diazepan-5-yl)ethyl)benzamide] here?
Answer: < 10000 nM

Question: How did the IC50 turn out when `O=C(NCC[C@@H]1CCN(CC(c2ccccc2)c2ccccc2)C(=O)[C@H](CCN2CCCCC2)N1)c1ccc(Cl)c(Cl)c1` [Compound 312, 3,4-dichloro-N-(2-((3S,5R)-1-(2,2-diphenylethyl)-2-oxo-3-(2-(piperidin-1-yl)ethyl)-1,4-diazepan-5-yl)ethyl)benzamide] was run?
Answer: < 1000 nM

Question: Which IC50 does the source give for `O=C(/C=C/c1ccc(Cl)cc1)NC[C@@H]1CCN(CC(c2ccccc2)c2ccccc2)C(=O)[C@H](CCC(=O)N2CCCCC2)N1` [Compound 318, (E)-3-(4-chlorophenyl)-N-(((3S,5S)-1-(2,2-diphenylethyl)-2-oxo-3-(3-oxo-3-(piperidin-1-yl)propyl)-1,4-diazepan-5-yl)methyl)acrylamide] here?
Answer: < 100 nM

Question: For `O=C(/C=C/c1ccc(Cl)cc1)NC[C@@H]1CCN(CC(c2ccccc2)c2ccccc2)C(=O)[C@H](CCc2ccccc2)N1` [Compound 320, (E)-3-(4-chlorophenyl)-N-(((3S,5S)-1-(2,2-diphenylethyl)-2-oxo-3-phenethyl-1,4-diazepan-5-yl)methyl)acrylamide], which IC50 is on record?
Answer: < 1000 nM

Question: Which IC50 does the source give for `O=C(/C=C/c1ccc(Cl)cc1)NC[C@@H]1CCN(CC(c2ccccc2)c2ccccc2)C(=O)[C@H](CCC2CCCCC2)N1` [Compound 322, (E)-3-(4-chlorophenyl)-N-(((3S,5S)-3-(2-cyclohexylethyl)-1-(2,2-diphenylethyl)-2-oxo-1,4-diazepan-5-yl)methyl)acrylamide] here?
Answer: < 1000 nM

Question: Which IC50 does the source give for `O=C(/C=C/c1ccc(Cl)cc1)NC[C@@H]1CCN(CC(c2ccccc2)c2ccccc2)C(=O)[C@H](Cc2ccccc2)N1` [Compound 324, (E)-N-(((3S,5S)-3-benzyl-1-(2,2-diphenylethyl)-2-oxo-1,4-diazepan-5-yl)methyl)-3-(4-chlorophenyl)acrylamide] here?
Answer: < 1000 nM

Question: How did the IC50 turn out when `NCC[C@@H]1N[C@H](CNC(=O)c2ccc(Cl)c(Cl)c2)CCN(Cc2cc(Cl)cc(Cl)c2)C1=O` [Compound 325, N-(((3S,5S)-3-(2-aminoethyl)-1-(3,5-dichlorobenzyl)-2-oxo-1,4-diazepan-5-yl)methyl)-3,4-dichlorobenzamide] was run?
Answer: < 1000 nM

Question: `NCC[C@@H]1N[C@H](CNC(=O)/C=C/c2ccc(Cl)cc2)CCN(Cc2cc(Cl)cc(Cl)c2)C1=O` [Compound 326, (E)-N-(((3S,5S)-3-(2-aminoethyl)-1-(3,5-dichlorobenzyl)-2-oxo-1,4-diazepan-5-yl)methyl)-3-(4-chlorophenyl)acrylamide] was tested. Which IC50 did it give?
Answer: < 100 nM

Question: How did the IC50 turn out when `O=C(NC[C@@H]1CCN(Cc2cc(Cl)cc(Cl)c2)C(=O)[C@H](CCN2CCCCC2)N1)c1ccc(Cl)c(Cl)c1` [Compound 343, 3,4-dichloro-N-(((3S,5S)-1-(3,5-dichlorobenzyl)-2-oxo-3-(2-(piperidin-1-yl)ethyl)-1,4-diazepan-5-yl)methyl)benzamide] was run?
Answer: < 100 nM

Question: How did the IC50 turn out when `O=C(/C=C/c1ccc(Cl)cc1)NC[C@@H]1CCN(Cc2cc(Cl)cc(Cl)c2)C(=O)[C@H](CCN2CCCCC2)N1` [Compound 345, (E)-3-(4-chlorophenyl)-N-(((3S,5S)-1-(3,5-dichlorobenzyl)-2-oxo-3-(2-(piperidin-1-yl)ethyl)-1,4-diazepan-5-yl)methyl)acrylamide] was run?
Answer: < 10 nM

Question: For `CCC(CC)CN1CC[C@@H](CNC(=O)c2ccc(Cl)c(Cl)c2)N[C@@H](CCN)C1=O` [Compound 346, N-(((3S,5S)-3-(2-aminoethyl)-1-(2-ethylbutyl)-2-oxo-1,4-diazepan-5-yl)methyl)-3,4-dichlorobenzamide], which IC50 is on record?
Answer: < 1000 nM

Question: `CCC(CC)CN1CC[C@@H](CNC(=O)c2ccc(Cl)c(Cl)c2)N[C@@H](CCN2CCCCC2)C1=O` [Compound 349, 3,4-dichloro-N-(((3S,5S)-1-(2-ethylbutyl)-2-oxo-3-(2-(piperidin-1-yl)ethyl)-1,4-diazepan-5-yl)methyl)benzamide] was tested. Which IC50 did it give?
Answer: < 100 nM

Question: With `CCC(CC)CN1CC[C@@H](CNC(=O)c2ccc(Cl)c(F)c2)N[C@@H](CCN)C1=O` [Compound 351, N-(((3S,5S)-3-(2-aminoethyl)-1-(2-ethylbutyl)-2-oxo-1,4-diazepan-5-yl)methyl)-4-chloro-3-fluorobenzamide] as the compound, how does the IC50 read?
Answer: < 10000 nM

Question: `CCC(CC)CN1CC[C@@H](CNC(=O)c2ccc(Cl)c(C)c2)N[C@@H](CCN)C1=O` [Compound 352, N-(((3S,5S)-3-(2-aminoethyl)-1-(2-ethylbutyl)-2-oxo-1,4-diazepan-5-yl)methyl)-4-chloro-3-methylbenzamide] was tested. Which IC50 did it give?
Answer: < 10000 nM

Question: `CCC(CC)CN1CC[C@@H](CNC(=O)c2ccc(F)c(Cl)c2)N[C@@H](CCN)C1=O` [Compound 353, N-(((3S,5S)-3-(2-aminoethyl)-1-(2-ethylbutyl)-2-oxo-1,4-diazepan-5-yl)methyl)-3-chloro-4-fluorobenzamide] was tested. Which IC50 did it give?
Answer: < 10000 nM

Question: `CCC(CC)CN1CC[C@@H](CNC(=O)c2ccc(C)c(Cl)c2)N[C@@H](CCN)C1=O` [Compound 354, N-(((3S,5S)-3-(2-aminoethyl)-1-(2-ethylbutyl)-2-oxo-1,4-diazepan-5-yl)methyl)-3-chloro-4-methylbenzamide] was tested. Which IC50 did it give?
Answer: < 10000 nM

Question: For `CCC(CC)CN1CC[C@@H](CNC(=O)/C=C/c2ccc(Cl)cc2)N[C@@H](CN2CCCCC2)C1=O` [Compound 355, (E)-3-(4-chlorophenyl)-N-(((3S,5S)-1-(2-ethylbutyl)-2-oxo-3-(piperidin-1-ylmethyl)-1,4-diazepan-5-yl)methyl)acrylamide], which IC50 is on record?
Answer: < 1000 nM

Question: Which IC50 does the source give for `CC(C)NCC[C@@H]1N[C@H](CCNC(=O)c2ccc(Cl)c(Cl)c2)CCN(CC(c2ccccc2)c2ccccc2)C1=O` [Compound 362, 3,4-dichloro-N-(2-((3S,5R)-1-(2,2-diphenylethyl)-3-(2-(isopropylamino)ethyl)-2-oxo-1,4-diazepan-5-yl)ethyl)benzamide] here?
Answer: < 1000 nM

Question: How did the IC50 turn out when `CC(C)N(CC[C@@H]1N[C@H](CCNC(=O)c2ccc(Cl)c(Cl)c2)CCN(CC(c2ccccc2)c2ccccc2)C1=O)C(C)C` [Compound 363, 3,4-dichloro-N-(2-((3S,5R)-3-(2-(diisopropylamino)ethyl)-1-(2,2-diphenylethyl)-2-oxo-1,4-diazepan-5-yl)ethyl)benzamide] was run?
Answer: < 10000 nM

Source: patent publication EP2257297B1, “COMPOUNDS FOR USE IN THE TREATMENT OF ACNE, SEBORRHOEA AND SEBHORROEIC DERMATITIS, OR FOR REDUCING SEBUM SECRETION” (priority 2008, dated 2009)
